This is an account of results in patent US5064946A, “Therapeutic nucleosides” (priority 1987, dated 1991).

Data set [1] has as its system HIV. Briefly: AZT/Acyclovir combinations vs. HIV in vitro (protection). It is filed as cell-based.
The test system of data set [2] is Friend Leukaemia Virus (FLV). The conditions noted are these: Krieg et al. 1978; cited from earlier work.
The subject of data set [3] is HIV. Briefly: AZT/Interferon combinations vs. HIV in vitro in PBMC: reverse transcriptase (RT) activity of supernatants. It is filed as cell-based. Conditions: rIFNαA 0; for mean reverse transcriptase value: Experiment 2-Day 10.
Data set [4] relates to thrombocytopaenia purpura. Kind of data set: Anti-ITP activity: platelet count in a patient with thrombocytopaenia purpura. It is filed as in vivo, human (patient). The procedure: A patient having a platelet count of 38,000 mm^-3 was diagnosed as having thrombocytopaenia purpura (platelet count <100,000 mm^-3) and was treated for 6 weeks with 5 mg/kg of AZT intravenously every 6 hours during which time, their platelet count rose to 140,000 mm^-3. Treatment was then changed to 5 mg/kg/4 hours orally for 4 weeks, discontinued for 4 weeks, when a drop in platelet numbers, to 93,000 mm^-3 after 2 weeks, and to 70,000 mm^-3 after 4 weeks, was seen. Treatment was recommenced at 5 mg/kg/4 hours orally for 5 weeks and the platelet count rose to 194,000 mm^-3.

Data set [5] deals with Friend Leukemia Virus (FLV). Kind of data set: Anti-Friend Leukemia Virus plaque inhibition in FG-10 cells. The conditions noted are these: for observed antiviral effect alone: dipyridamole 10 μM, dilazep 5 μM, each alone. Format: cell-based.
In another data set the test system is Kaposi's sarcoma (KS). Briefly: Treatment of Kaposi's sarcoma in 9 patients. It is filed as in vivo, human (patients). The procedure: In this study, 9 patients diagnosed as having Kaposi's sarcoma (KS) were treated with AZT and the following effects observed.
The next data set relates to HIV p24. Briefly: AZT/Interferon combinations vs. HIV in vitro in PBMC: HIV p24 antigen by radioimmunoassay. Format: cell-based. The conditions noted are these: Experiment 4-Day 14, IFNαA 0.
For data set [6] the following is noted: Ostertag et al. 1974; cited from earlier work.
Another data set has as its system E. coli CN314. Kind of data set: In vitro antibacterial MIC and synergy studies against E. coli CN314. Conditions: Escherichia coli.
The test system of data set [7] is vaccinia, HSVI and varicella zoster virus (VZV). Conditions: De Clerq et al. 1980, incl. vaccinia; cited from earlier work.
The next data set can be described thus: clinical. The conditions noted are these: human, in vivo. The procedure:
On days 2 and 3 the patients were also given 500 mg probenecid (PB) every 6 hours and a single dose of AZT was given on day 3.

Data set [8] concerns HIV. Kind of data set: AZT/Interferon combinations vs. HIV in vitro in PBMC: overall inhibition / synergy (all measures of viral replication, isobologram). The conditions noted are these: experiment 1, all concentrations of AZT. Format: cell-based.
Data set [9] relates to HIV. Briefly: Anti-HIV activity of 3'-azidonucleosides in vitro (T-cells). Format: cell-based. The conditions noted are these: Human immunodeficiency virus 1; T-cells exposed to HIV, viable cell count; read-out: ED50 (the source's name).
The next data set concerns Citro. freundii. Briefly: In vitro antibacterial activity (MIC), Citro. freundii. Format: cell-based. Conditions: Citrobacter freundii; Wellcotest sensitivity Test Agar + 7% lysed horse blood.
The test system of another data set is Salmonella typhimurium. Briefly: In vitro antibacterial activity (MIC), Salmonella typhimurium. It is filed as cell-based. Conditions: Salmonella enterica, Wellcotest sensitivity Test Agar + 7% lysed horse blood.
For a further data set, the system named is Entero. aerogenes. Briefly: In vitro antibacterial activity (MIC), Entero. aerogenes. Format: cell-based, Enterobacter aerogenes. Conditions: Klebsiella aerogenes; Wellcotest sensitivity Test Agar + 7% lysed horse blood.

Where only a bound is given, the exact number is not on record here.

By inhibition is commonly meant how much of the control response was suppressed. The MIC is the lowest concentration found to suppress growth. The AUC is the area under the concentration-time curve, a measure of exposure. Higher therefore signals high exposure. Usually Cmax stands for the peak of the concentration-time curve. The term Tmax denotes the time at which the peak concentration occurs. As usually defined, the half-life is the time needed for the level to fall by half in the phase considered. A high value points to slow loss.

For the molecule `Nc1nc2c(ncn2COCCO)c(=O)[nH]1` [ACV, 9-(2-hydroxyethoxymethyl)guanine], the “potentiation of the antiviral activity of AZT” value with HIV [1] is given as “about 3 -fold”. Further, the “activity alone vs. HIV” value with HIV [1] (ACV alone) is reported as “little activity”. In the data set on HIV [1] (Human immunodeficiency virus 1, T-cell, ACV alone, 16 μg/ml (highest tested)), the inhibition at 16 µg/mL was less than 30%.

For `Cc1cn([C@H]2C[C@H](N=[N+]=[N-])[C@@H](CO)O2)c(=O)[nH]c1=O` [AZT], the “activity against FLV in in vitro experiments” value in data set [2] was “active against FLV”. Besides, the “mean reverse transcriptase value” in the data set with HIV [3] (AZT 0.01 μM) is listed as 159 cpm/10^6 cells × 10^3; with HIV [3] (AZT 0.02 μM), 110 cpm/10^6 cells × 10^3; with HIV [3] (AZT 0.04 μM), 71 cpm/10^6 cells × 10^3; in the data set on HIV [3] (AZT 0.08 μM) it was 31 cpm/10^6 cells × 10^3; in the data set on HIV [3] (AZT 0.16 μM) it was 7 cpm/10^6 cells × 10^3. Moreover, the “mean RT value” stood at 51 cpm/10^6 cells × 10^3 in the data set on HIV [3] (Experiment 3-Day 13, AZT 0.02 μM); 10 cpm/10^6 cells × 10^3 in the data set on HIV [3] (Experiment 3-Day 13, AZT 0.04 μM); 2 cpm/10^6 cells × 10^3 in the data set with HIV [3] (Experiment 3-Day 13, AZT 0.08 μM); 5 cpm/10^6 cells × 10^3 in the data set on HIV [3] (Experiment 3-Day 13, AZT 0.16 μM); 8 cpm/10^6 cells × 10^3 with HIV [3] (Experiment 4-Day 11, AZT 0.02 μM); 4 cpm/10^6 cells × 10^3 in the data set on HIV [3] (Experiment 4-Day 11, AZT 0.04 μM). The “mean RT value” with HIV [3] (Experiment 4-Day 11, AZT 0.08 μM) was determined as 1 cpm/10^6 cells × 10^3. For the same molecule, the platelet count was 93,000 mm^-3 in data set [4] (2 weeks after discontinuation); 70,000 mm^-3 in [4] (4 weeks after discontinuation); 140,000 mm^-3 in [4] (after 6 weeks 5 mg/kg i.v. every 6 hours (start 38,000)); 194,000 mm^-3 in data set [4] (treatment recommenced, 5 mg/kg/4 hours orally for 5 weeks). In data set [5] (144 h, read-out: Azidothymidine ED50), the EC50 is 5 nM. For the same molecule, the response in the data set on Kaposi's sarcoma (KS) (9 patients) came to 50%. Further, the “patients exhibiting regression of lesions” value with Kaposi's sarcoma (KS) (of 9 patients) is “Three”. The “patients in which lesions progressed” value in the data set on Kaposi's sarcoma (KS) (of 9 patients) is 3 patients. Moreover, in the data set on Kaposi's sarcoma (KS) (of 9 patients), the “patients in which the KS remained stable” value is recorded as 2 patients. Moreover, the “patients with complete cure” value in the data set with Kaposi's sarcoma (KS) (of 9 patients) is “one”. In addition, the “response relative to preferred current therapy” value in the data set on Kaposi's sarcoma (KS) (vs recombinant a-interferon) is given as “comparable to that obtained with treatment with the preferred current therapy for KS, recombinant a-interferon”. In addition, the “HIV p24” value in the data set on HIV p24 (AZT 0.02 μM) is recorded as 100-200 ng protein/ml; in the data set on HIV p24 (AZT 0.04 μM), 25-30 ng protein/ml; with HIV p24 (AZT 0.08 μM), 11.2 ng protein/ml. Further, the inhibition at 8 µM in the data set with HIV [1] (Human immunodeficiency virus 1, T-cell, AZT alone, 8 μM) was determined as 100%. For the same molecule, the “AZT concentration required to achieve 100% protection” value with HIV [1] (with ACV 0 μg/ml) stood at 8 µM. In addition, the cellular toxicity result in data set [6] is “lack of cellular toxicity”. Moreover, the MIC in the data set on E. coli CN314 was determined as 1 µg/mL. In addition, the “activity against any viruses used in their tests” value in data set [7] is listed as “no appreciable activity”. For the same molecule, the “decrease in the total body clearance (Cl/F)” value in the data set “clinical” is on record as 3 -fold. Besides, the “peak (Cmax) and trough (Cmin) levels on day 3 vs day 1” value in the data set “clinical” is given as “significantly higher than the corresponding levels on day 1”. In “clinical” (po, 2 mg/kg), this molecule displayed a tl/2 of 0.89 h. In “clinical” (po, 2 mg/kg, AUC), the AUC came out at 3.7 µM·h. The molecule further displayed a Cmax in the data set “clinical” (po, 2 mg/kg, Cmax) of 3.74 µM. The Tmax in the data set “clinical” (po, 2 mg/kg, Tmax) was 30 min. Also, the half-life is 52.8 min in the data set “clinical” (po, 2 mg/kg, mean half-life (tl/2)) and 52.2 min in “clinical” (po, 2 mg/kg, tl/2). Besides, in the data set with HIV [8], the “inhibition of HIV” value is given as “fully inhibitory”.

On to `[N-]=[N+]=N[C@H]1C[C@H](n2cc(Br)c(N)nc2=O)O[C@@H]1CO` [3'-Azido-5-bromo-2',3'-dideoxycytidine], for which, in the data set with HIV [9], the EC50 stood at 5 µM.

On to `OCCN(CCO)c1nc(N2CCCCC2)c2nc(N(CCO)CCO)nc(N3CCCCC3)c2n1` [dipyridamole], for which the “observed antiviral effect alone” value in [5] was “Neither dipyridamole (10 μM) nor dilazep (5 μM) alone had any observed antiviral effect”.

Take `[N-]=[N+]=N[C@H]1C[C@H](n2cc(Br)c(=O)[nH]c2=O)O[C@@H]1CO` [Compound 8, 3'-Azido-5-bromo-2',3'-dideoxyuridine]: the EC50 with HIV [9] stood at 5 µM. Besides, the MIC in the data set on Citro. freundii, in the data set with Salmonella typhimurium and with Entero. aerogenes was greater than 100 µg/mL each time.

Consider `[N-]=[N+]=N[C@H]1C[C@H](n2ccc(N)nc2=O)O[C@@H]1CO` [3'-Azido-2',3'-dideoxycytidine], for which the EC50 in the data set on HIV [9] worked out at 10 µM.

Take `[N-]=[N+]=N[C@H]1C[C@H](n2cc(/C=C/C(=O)O)c(=O)[nH]c2=O)O[C@@H]1CO` [(E)-3-[1-(3'-Azido-2',3'-dideoxy-β-D-erythro-pentofuranosyl)-1,2,3,4-tetrahydro-2,4-dioxo-5-pyrimidinyl]-2-propenoic Acid]: the EC50 in the data set on HIV [9] was 100 µM.

For `COc1cc(C(=O)OCCCN2CCCN(CCCOC(=O)c3cc(OC)c(OC)c(OC)c3)CC2)cc(OC)c1OC` [dilazep], the “observed antiviral effect alone” value in data set [5] is given as “Neither dipyridamole (10 μM) nor dilazep (5 μM) alone had any observed antiviral effect”.
